Where a name gives a salt, the structure may show the parent alone.
Tests used:
[1] = biological target: T1, D4 receptors (Homo sapiens, UniProt P21917); test: D4 receptor binding assay (3H-YM 09151-2 displacement)
T1 construct: expressed in transfected cells; host or cells: COS cells
T1 sequence (P21917 1-419): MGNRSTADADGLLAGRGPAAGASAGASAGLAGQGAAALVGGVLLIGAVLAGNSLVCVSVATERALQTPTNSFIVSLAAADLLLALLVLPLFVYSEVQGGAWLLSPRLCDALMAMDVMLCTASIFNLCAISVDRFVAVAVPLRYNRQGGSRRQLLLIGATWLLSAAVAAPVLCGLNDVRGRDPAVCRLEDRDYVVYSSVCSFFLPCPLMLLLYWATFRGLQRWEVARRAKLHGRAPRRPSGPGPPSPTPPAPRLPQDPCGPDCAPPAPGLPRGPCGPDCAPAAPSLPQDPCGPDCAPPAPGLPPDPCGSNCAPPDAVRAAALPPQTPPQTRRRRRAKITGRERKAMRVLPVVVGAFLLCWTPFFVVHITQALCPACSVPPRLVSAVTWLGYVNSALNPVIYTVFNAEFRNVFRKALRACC
Experimental: (§1) Pellets of COS cells containing recombinantly produced D2 or D4 receptors from human are used for the assays. The sample is homogenized in 100 volumes (w/vol) of 0.05 M Tris HCl buffer at 4° C. and pH 7.4. The sample is then centrifuged at 30,000×g and resuspended and rehomogenized. The sample is then centrifuged as described above and the final tissue sample is frozen until use. The tissue is resuspended 1:20 (wt/vol) in 0.05 M Tris HCl buffer containing 100 mM NaCl.
(§2) Incubations are carried out at […]. and contain 0.4 ml of tissue sample, 0.5 nM 3H-YM 09151-2 and the compound of interest in a total incubation mixture of 1.0 ml. Nonspecific binding is defined as that binding found in the presence of 1 mM spiperone; without further additions, nonspecific binding is less than 20% of total binding. Representative binding characteristics for compounds of the invention for the D2 and D4 receptor subtypes are shown in Table 2 for cloned human dopamine receptors. Typically, the compounds of the invention have similar binding profiles.

[2] = biological target: T2, D2 receptors (Homo sapiens, UniProt P14416); test: D2 receptor binding assay (3H-YM 09151-2 displacement)
T2 construct: expressed in transfected cells; host or cells: COS cells
Experimental: as §1, §2

T2 sequence (P14416 whole entry): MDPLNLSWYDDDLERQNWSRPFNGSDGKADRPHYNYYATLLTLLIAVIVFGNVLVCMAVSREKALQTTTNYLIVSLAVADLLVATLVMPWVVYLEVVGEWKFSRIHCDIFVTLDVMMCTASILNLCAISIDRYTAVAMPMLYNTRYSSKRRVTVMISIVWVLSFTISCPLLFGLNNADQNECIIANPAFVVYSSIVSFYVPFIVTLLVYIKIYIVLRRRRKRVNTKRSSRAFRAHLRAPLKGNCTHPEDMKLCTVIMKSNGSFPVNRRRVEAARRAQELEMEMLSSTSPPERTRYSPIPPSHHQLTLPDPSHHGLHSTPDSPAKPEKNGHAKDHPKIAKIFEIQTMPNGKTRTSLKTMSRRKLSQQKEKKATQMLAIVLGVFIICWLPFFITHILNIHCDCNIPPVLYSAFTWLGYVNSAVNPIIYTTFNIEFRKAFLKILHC

SMILES | melting point [°C] | Ki [1] [µM] | Ki [2] [µM]
Br.Br.Clc1ccc(CN2CCN(c3cccc(Cl)c3)CC2)cc1 | 238 to 240 | – | –
Clc1ccc(CN2CCN(c3ccccc3Cl)CC2)cc1.O=C(O)C(=O)O.O=C(O)C(=O)O | 203 to 204 | – | –
Clc1ccc(CN2CCN(c3ccc(Cl)c(Cl)c3)CC2)cc1 | 82 to 83 | – | –
Cc1ccc(N2CCN(Cc3ccc(Cl)cc3)CC2)cc1.O=C(O)C(=O)O.O=C(O)C(=O)O | 204 to 206 | – | –
Cc1cccc(N2CCN(Cc3ccc(Cl)cc3)CC2)c1.O=C(O)C(=O)O.O=C(O)C(=O)O | 233 to 235 | – | –
Cc1ccccc1N1CCN(Cc2ccc(Cl)cc2)CC1.O=C(O)C(=O)O.O=C(O)C(=O)O | 205 to 206 | – | –
COc1ccccc1N1CCN(Cc2ccc(Cl)cc2)CC1.O=C(O)C(=O)O.O=C(O)C(=O)O | 217 to 220 | – | –
CCOc1ccc(N2CCN(Cc3ccc(Cl)cc3)CC2)cc1.Cl.Cl | 235 to 237 | – | –
Br.Br.CCOc1ccccc1N1CCN(Cc2ccc(Cl)cc2)CC1 | 215 to 217 | – | –
Clc1ccc(CN2CCN(c3ccccc3)CC2)cc1.O=C(O)C(=O)O.O=C(O)C(=O)O | 228 to 231 | – | –
Cc1ccc(CN2CCN(c3cccc(Cl)c3)CC2)cc1.O=C(O)C(=O)O.O=C(O)C(=O)O | 199 to 200 | – | –
Cc1ccc(N2CCN(Cc3ccc(Cl)cc3)CC2)cc1C (as salt: hydrochloride) [Compound 2, 1-(3,4-dimethylphenyl)-4-(4-chlorobenzyl)piperazine dihydrochloride] | 225 to 228 | – | –
COc1ccc(N2CCN(Cc3ccc(Cl)cc3)CC2)cc1 (as salt: oxalate) [Compound 3, 1-(4-methoxyphenyl)-4-(4-chlorobenzyl)piperazine dioxalate] | 211 to 212 | – | –
Clc1ccc(CN2CCN(c3ccc(Cl)cc3)CC2)cc1 [Compound 1, 1-(4-Chlorophenyl)-4-(4-chlorobenlzyl)piperazine Dihydrochloride] | – | 0.005 | > 1
Cc1ccc(N2CCN(Cc3ccc(Cl)cc3)CC2)cc1C [Compound 2, 1-(3,4-dimethylphenyl)-4-(4-chlorobenzyl)piperazine dihydrochloride] | – | 0.016 | > 0.6
COc1ccc(N2CCN(Cc3ccc(Cl)cc3)CC2)cc1 [Compound 3, 1-(4-methoxyphenyl)-4-(4-chlorobenzyl)piperazine dioxalate] | – | 0.005 | > 1
Cc1ccc(CN2CCN(c3ccc(Cl)cc3)CC2)cc1 [Compound 4, 1-(4-chlorophenyl)-4-(4-methylbenzyl)piperazine dihydrobromide] | – | 0.015 | > 0.3
